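Step 1: Grow cells in 96-well plates. Step 2: Expose to compound for 48 hours at 5 concentrations. Step 3: Interpolate endpoints linearly; if unreached, use highest concentration. At the GI50, growth is halved.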 Activity calls are given as the source filed them. No stated cut-off is given here; in the data, active = GI50 up to about 1.1 µM and inactive = higher.
Tests used:
Assay in all cases: inhibition of tumour cell growth, NCI panel, 48 h
[1] = system: CCRF-CEM
[2] = system: SF-268
[3] = system: OVCAR-4
[4] = system: TK-10
[5] = system: A498
[6] = system: CAKI-1
[7] = system: SF-539
[8] = system: HOP-92
[9] = system: MDA-N
[10] = system: SNB-19
[11] = system: SN12C
[12] = system: MDA-MB-231
[13] = system: SK-MEL-5
[14] = system: NCI/ADR-RES
[15] = system: Hs-578T
[16] = system: DU-145
[17] = system: HCT-116
[18] = system: MCF7
[19] = system: HT-29
[20] = system: KM12
[21] = system: UO-31
[22] = system: BT-549
[23] = system: Malme-3M
[24] = system: SK-MEL-2
[25] = system: T47D
[26] = system: ACHN
[27] = system: MDA-MB-435
[28] = system: A549
[29] = system: OVCAR-8
[30] = system: SF-295
[31] = system: M14
[32] = system: K562
[33] = system: NCI-H460
[34] = system: PC-3
[35] = system: OVCAR-5
[36] = system: COLO 205
[37] = system: MOLT-4
[38] = system: HOP-62
[39] = system: HCT-15
[40] = system: NCI-H522
[41] = system: OVCAR-3
[42] = system: SNB-75
[43] = system: IGROV-1
[44] = system: U-251
[45] = system: NCI-H23
[46] = system: SK-MEL-28
[47] = system: LOX IMVI
[48] = system: SW-620
[49] = system: UACC-257
[50] = system: 786-0
[51] = system: UACC-62
[52] = system: SK-OV-3
[53] = system: NCI-H226
[54] = system: SR
[55] = system: HCC 2998
[56] = system: EKVX
[57] = system: RPMI-8226
[58] = system: RXF 393
[59] = system: HL-60

Measured: GI50

O=C(CSc1nnc(-c2ccccn2)s1)N/N=C/c1ccccc1
inactive: [1] > 100 µM | [2] 48.9 µM | [3] > 100 µM | [4] 89.1 µM | [5] > 100 µM | [6] > 100 µM | [7] > 100 µM | [8] 86.7 µM | [9] > 100 µM | [10] > 100 µM | [11] > 100 µM | [12] > 100 µM | [13] > 100 µM | [14] > 100 µM | [15] > 100 µM | [16] > 100 µM | [17] > 100 µM | [18] > 100 µM | [19] > 100 µM | [20] > 100 µM | [21] 39.4 µM | [22] > 100 µM | [23] 97.7 µM | [24] > 100 µM | [25] 46.8 µM | [26] 89.3 µM | [27] > 100 µM | [28] > 100 µM | [29] > 100 µM | [30] > 100 µM | [31] > 100 µM | [32] > 100 µM | [33] > 100 µM | [34] > 100 µM | [35] > 100 µM | [36] > 100 µM | [37] 63.5 µM | [38] 51.5 µM | [40] > 100 µM | [41] > 100 µM | [42] 3.03 µM | [43] > 100 µM | [44] 54.5 µM | [45] > 100 µM | [46] > 100 µM | [47] > 100 µM | [48] > 100 µM | [49] > 100 µM | [50] 76.9 µM | [51] > 100 µM | [52] > 100 µM | [53] > 100 µM | [54] > 100 µM
> 100 µM: [39]

CCc1c(O)c2c(c(O)c1C(C)=O)C(=O)c1c(cc(O)c(C(=O)O)c1C(=O)O)C2=O
inactive: [1] > 100 µM | [2] > 100 µM | [3] > 100 µM | [4] > 100 µM | [5] > 100 µM | [6] > 100 µM | [7] > 100 µM | [8] > 100 µM | [9] > 100 µM | [55] > 100 µM | [10] > 100 µM | [11] > 100 µM | [12] > 100 µM | [13] > 100 µM | [14] > 100 µM | [15] > 100 µM | [16] > 100 µM | [17] > 100 µM | [18] > 100 µM | [56] > 100 µM | [19] > 100 µM | [20] > 100 µM | [21] > 100 µM | [22] > 100 µM | [23] > 100 µM | [24] > 100 µM | [25] > 100 µM | [26] > 100 µM | [27] > 100 µM | [28] > 100 µM | [29] > 100 µM | [30] > 100 µM | [31] > 100 µM | [32] > 100 µM | [33] > 100 µM | [34] > 100 µM | [57] > 100 µM | [35] > 100 µM | [36] > 100 µM | [37] > 100 µM | [38] > 100 µM | [40] > 100 µM | [41] > 100 µM | [42] > 100 µM | [43] > 100 µM | [58] > 100 µM | [44] > 100 µM | [45] > 100 µM | [46] > 100 µM | [47] > 100 µM | [48] > 100 µM | [49] > 100 µM | [50] > 100 µM | [51] > 100 µM | [52] > 100 µM | [53] > 100 µM | [54] > 100 µM
> 100 µM: [39]

Cc1cccc(-n2c(C)nc3ccc(NC(=S)Nc4ccccc4)cc3c2=O)c1
inactive: [2] 66.5 µM | [3] 60.8 µM | [4] > 100 µM | [5] > 100 µM | [6] > 100 µM | [9] 55.6 µM | [55] 25 µM | [10] > 100 µM | [11] > 100 µM | [59] 37.4 µM | [12] 70.1 µM | [13] 18.2 µM | [14] 84.1 µM | [15] > 100 µM | [16] 87.7 µM | [17] 46.5 µM | [18] 67 µM | [56] 55.7 µM | [19] 51.9 µM | [20] 57.3 µM | [21] 47.4 µM | [22] 48.5 µM | [23] 69.2 µM | [24] 39 µM | [25] 38 µM | [26] 53.5 µM | [27] 56 µM | [29] 74.3 µM | [30] > 100 µM | [32] 50.1 µM | [33] 11 µM | [34] 41.6 µM | [57] 35.2 µM | [35] > 100 µM | [36] 30.6 µM | [37] 28.4 µM | [38] > 100 µM | [40] 51.2 µM | [41] 32.4 µM | [42] > 100 µM | [43] > 100 µM | [58] 62.4 µM | [44] > 100 µM | [45] 64.9 µM | [46] > 100 µM | [47] 37.2 µM | [48] > 100 µM | [49] 47.6 µM | [50] > 100 µM | [51] 50.1 µM | [53] 81.1 µM | [54] > 100 µM
68.5 µM: [39]

O=c1[nH]nc(-c2ccccc2)n1-n1cccc1
> 100 µM: [39]
inactive: [1] 50.8 µM | [2] > 100 µM | [3] > 100 µM | [4] > 100 µM | [5] > 100 µM | [6] > 100 µM | [9] > 100 µM | [55] > 100 µM | [10] > 100 µM | [11] > 100 µM | [12] > 100 µM | [13] > 100 µM | [14] > 100 µM | [15] > 100 µM | [16] > 100 µM | [17] > 100 µM | [18] > 100 µM | [56] > 100 µM | [19] > 100 µM | [20] > 100 µM | [21] > 100 µM | [22] > 100 µM | [23] > 100 µM | [24] > 100 µM | [25] > 100 µM | [26] > 100 µM | [27] > 100 µM | [28] > 100 µM | [29] > 100 µM | [30] > 100 µM | [31] > 100 µM | [32] > 100 µM | [33] > 100 µM | [34] > 100 µM | [57] > 100 µM | [35] > 100 µM | [36] > 100 µM | [37] 35.6 µM | [38] > 100 µM | [40] > 100 µM | [41] > 100 µM | [42] > 100 µM | [43] > 100 µM | [58] > 100 µM | [44] > 100 µM | [46] > 100 µM | [47] > 100 µM | [48] > 100 µM | [49] > 100 µM | [50] > 100 µM | [51] > 100 µM | [52] > 100 µM | [53] > 100 µM | [54] 9.29 µM

Nc1nc(O)c2ncn(C3C=CC(CO)O3)c2n1 (stereo unspecified)
inactive: [1] 11.1 µM | [3] > 100 µM | [4] > 100 µM | [5] > 100 µM | [6] > 100 µM | [8] > 100 µM | [9] > 100 µM | [10] > 100 µM | [11] > 100 µM | [12] > 100 µM | [13] > 100 µM | [14] > 100 µM | [15] > 100 µM | [16] > 100 µM | [17] > 100 µM | [18] 75.2 µM | [19] > 100 µM | [20] > 100 µM | [21] > 100 µM | [22] > 100 µM | [23] > 100 µM | [24] > 100 µM | [25] > 100 µM | [27] > 100 µM | [29] > 100 µM | [30] > 100 µM | [31] > 100 µM | [33] > 100 µM | [34] > 100 µM | [57] > 100 µM | [35] > 100 µM | [36] > 100 µM | [37] > 100 µM | [38] > 100 µM | [41] > 100 µM | [42] > 100 µM | [58] > 100 µM | [44] > 100 µM | [45] > 100 µM | [46] > 100 µM | [47] > 100 µM | [48] > 100 µM | [49] > 100 µM | [53] > 100 µM | [54] > 100 µM
> 100 µM: [39]

Reference: ChEMBL document CHEMBL1201862, “PubChem BioAssay data set” (2004)
